# Measured values taken from PMC6199744, “Development of Chemical Proteomics for the Folateome and Analysis of the Kinetoplastid Folateome” (ACS Infectious Diseases, 2018).
# Read-outs that look alike come from different tables or passages of the source.
# Experiments:
# [1] = target: GLYCERALDEHYDE 3-PHOSPHATE DEHYDROGENASE, GLYCOSOM (TB427.06.4300) (Trypanosoma brucei brucei, UniProt P22512); test: Multitargeted bead mixture competition; type: binding, T. brucei; details: for fold change / fold change - vehicle control: protein TB427.06.4300 GLYCERALDEHYDE 3-PHOSPHATE DEHYDROGENASE, GLYCOSOMAL; for fold change: vehicle control = 1
# [2] = system: dynein associated protein (Tb09.211.4920); test: Multitargeted bead mixture competition; type: binding, T. brucei; details: for fold change / fold change - vehicle control: protein TB09.211.4920 DYNEIN-ASSOCIATED PROTEIN, PUTATIVE; for fold change: vehicle control = 1
# [3] = target: variant surface glycoprotein 221 (VSM2.TRYBB) (Trypanosoma brucei brucei, UniProt P26332); type: binding, T. brucei; details: for fold change / fold change - vehicle control: protein VSM2_TRYBB VARIANT SURFACE GL[…] 1.2; for fold change: vehicle control = 1
# [4] = target: DIHYDROFOLATE REDUCTASE-T[…] (TB427.07.5480) (Trypanosoma brucei brucei, UniProt Q27783); test: Multitargeted bead mixture competition; type: binding; details: for fold change vs vehicle control: vehicle control = 1
# methylene-THF-reductase = methylene-THF-reductase (Homo sapiens, UniProt P42898); test: Multitargeted bead mixture competition, HeLa cell extract; type: binding
# Chain of methylene-THF-reductase (P42898 whole entry): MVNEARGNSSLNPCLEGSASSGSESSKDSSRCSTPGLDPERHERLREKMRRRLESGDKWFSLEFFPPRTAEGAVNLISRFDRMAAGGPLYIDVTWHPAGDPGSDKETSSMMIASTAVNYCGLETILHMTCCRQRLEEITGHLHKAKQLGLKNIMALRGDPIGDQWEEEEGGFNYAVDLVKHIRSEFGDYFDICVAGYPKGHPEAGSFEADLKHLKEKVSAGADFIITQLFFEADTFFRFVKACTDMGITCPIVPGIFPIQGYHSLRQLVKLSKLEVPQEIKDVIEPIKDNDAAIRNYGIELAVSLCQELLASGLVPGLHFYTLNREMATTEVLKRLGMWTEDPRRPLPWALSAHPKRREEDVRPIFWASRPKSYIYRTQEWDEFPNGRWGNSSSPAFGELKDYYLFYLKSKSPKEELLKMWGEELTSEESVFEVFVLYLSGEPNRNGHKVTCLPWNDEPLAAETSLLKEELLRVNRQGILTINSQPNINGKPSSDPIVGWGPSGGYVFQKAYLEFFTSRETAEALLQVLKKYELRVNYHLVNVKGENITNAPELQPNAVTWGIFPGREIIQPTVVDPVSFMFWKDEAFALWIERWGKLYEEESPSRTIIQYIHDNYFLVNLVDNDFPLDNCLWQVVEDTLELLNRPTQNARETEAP
# [5] = system: IRON/ASCORBATE OXIDOREDUCTASE FAMILY PROTEIN, PUTA (Tb427.02.6180); test: Multitargeted bead mixture competition; type: binding, T. brucei; details: for fold change: PUTATIVE
# [6] = target: PTERIDINE REDUCTASE (TB927.8.2210) (Trypanosoma brucei brucei, UniProt O76290); test: Multitargeted bead mixture competition; type: binding, T. brucei; details: for fold change vs vehicle control / fold change - vehicle control: protein PTERIDINE REDUCTASE (CZT00009056.1); for fold change vs vehicle control: vehicle control = 1; for competition for PTR1 (Figure 6): bead mixture, compound 100 μM
# [7] = target: T1, MTHF complex (DHCH protein in humans) (Homo sapiens, UniProt P11586); test: Multitargeted bead mixture competition, HeLa cell extract; type: binding
# T1 sequence (P11586 1-935): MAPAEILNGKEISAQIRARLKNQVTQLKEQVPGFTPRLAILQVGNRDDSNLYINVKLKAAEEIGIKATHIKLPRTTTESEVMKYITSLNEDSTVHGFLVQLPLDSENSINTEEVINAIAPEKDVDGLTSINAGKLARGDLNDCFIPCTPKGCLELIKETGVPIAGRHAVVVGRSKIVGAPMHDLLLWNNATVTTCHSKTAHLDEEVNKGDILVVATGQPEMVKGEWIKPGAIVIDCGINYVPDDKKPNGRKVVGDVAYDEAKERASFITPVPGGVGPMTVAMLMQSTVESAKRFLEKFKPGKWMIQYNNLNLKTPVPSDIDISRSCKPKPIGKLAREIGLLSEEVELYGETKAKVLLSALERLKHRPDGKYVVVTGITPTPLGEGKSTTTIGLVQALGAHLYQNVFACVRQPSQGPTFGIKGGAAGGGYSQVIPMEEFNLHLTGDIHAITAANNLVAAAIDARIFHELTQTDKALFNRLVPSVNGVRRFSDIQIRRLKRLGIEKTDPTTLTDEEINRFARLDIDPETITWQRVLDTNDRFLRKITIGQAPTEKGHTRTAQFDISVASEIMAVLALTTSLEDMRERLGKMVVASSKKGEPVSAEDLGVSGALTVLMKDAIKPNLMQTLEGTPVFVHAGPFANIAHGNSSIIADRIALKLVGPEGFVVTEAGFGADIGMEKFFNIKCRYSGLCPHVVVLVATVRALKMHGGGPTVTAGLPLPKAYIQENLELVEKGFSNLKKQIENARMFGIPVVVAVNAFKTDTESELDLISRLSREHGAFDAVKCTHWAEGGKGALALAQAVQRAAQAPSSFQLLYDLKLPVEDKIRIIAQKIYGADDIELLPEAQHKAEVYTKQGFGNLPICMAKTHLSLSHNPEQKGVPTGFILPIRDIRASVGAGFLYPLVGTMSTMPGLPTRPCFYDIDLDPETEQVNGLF
# [8] = target: T2, HeLa cell extract proteins (Homo sapiens, UniProt P61457); type: binding
# T2 construct: endogenous in cells; host or cells: HeLa cell extract
# T2 sequence (P61457 1-104): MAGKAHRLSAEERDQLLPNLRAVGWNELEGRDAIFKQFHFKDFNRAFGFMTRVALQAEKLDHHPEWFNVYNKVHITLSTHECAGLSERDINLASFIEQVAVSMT
# [9] = system: NGG1 INTERACTING FACTOR 3-LIKE (Tb427tmp.02.5000); type: binding; details: for fold change: vehicle control = 1
# DHFR-TS = DHFR-TS (Leishmania major, UniProt P07382); type: binding; details: for fold change: LMJF.06.0860 DIH[…]-T[…], vehicle control = 1
# PTR1 = target: T3, PTR1 (Leishmania major, UniProt Q01782); type: binding; set-up: endogenous in cells; host or cells: L. major Friedlin promastigote lysate
# T3 sequence (Q01782 1-288): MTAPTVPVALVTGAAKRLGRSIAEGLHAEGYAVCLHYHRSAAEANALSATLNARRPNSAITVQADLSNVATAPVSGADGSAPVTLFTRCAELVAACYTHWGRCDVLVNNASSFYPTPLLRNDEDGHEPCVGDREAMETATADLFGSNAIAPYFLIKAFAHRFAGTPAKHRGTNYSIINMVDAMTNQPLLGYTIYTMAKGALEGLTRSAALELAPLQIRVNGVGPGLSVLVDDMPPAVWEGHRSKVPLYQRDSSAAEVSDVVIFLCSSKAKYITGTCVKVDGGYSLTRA
# [10] = system: methylthioadenosine phosphorylase (LmjF.05.0830); test: Multitargeted bead mixture competition; type: binding, Leishmania; details: for fold change vs vehicle control: protein LMJF.05.0830 METHYLTHIOADENOSINE PHOSPHORYLASE, PUTATIVE
# [11] = protein TB427.07.5480 DIH[…]-T[…]
# [12] = protein TB427TMP.02.5000 NGG1 INTERACTING FACTOR 3-LIKE
# [13] = bead mixture, T. brucei lysates
# [14] = protein TB427TMP.02.5000 NGG1 I[…] 3-LIKE
# [15] = relative to vehicle control = 1, protein TB427.02.6180 IRON/ASCORBATE OXIDOREDUCTASE FAMILY PROTEIN
# [16] = LMJF.23.0270 PTERIDINE REDUCTASE 1, vehicle control = 1
structure (smiles),measurement,setting,value
"Nc1nc2c(c(=O)[nH]1)N(C=O)C(CNc1ccc(C(=O)N[C@@H](CCC(=O)O)C(=O)O)cc1)CN2 (some centres unmarked) [LEU, leucovorin]",fold change,[1],1.01
same,fold change,[2],0.78
same,fold change,[3],3.08
same,fold change vs vehicle control,[4]; [11],1.45
same,fold changes relative to vehicle control,"methylene-THF-reductase; protein MTHFR, HeLa",0.52
same,fold change,"[5]; protein TB427.02.6180 IRON/ASCORBATE OXIDOREDUCTASE FAMILY PROTEIN, vehicle control = 1",0.92
same,fold change vs vehicle control,[6],0.92
same,fold changes relative to vehicle control,"[7]; HeLa, captured protein MTHFD1 (105 KDA PROTEIN.)",0.61
same,fold changes relative to vehicle control,"[8]; HeLa, captured protein PCBD1",1.4
same,fold change,[9]; [12],0.98
same,fold change relative to vehicle control,"DHFR-TS; protein LMJF.06.0860, DIH[…]-T[…]",1.39
same,fold change,"PTR1; vs vehicle control, protein LMJF.23.0270 PTERIDINE REDUCTASE 1",1.04
same,fold change vs vehicle control,[10],0.96
"Nc1nc2[nH]cc(CCc3ccc(C(=O)N[C@@H](CCC(=O)O)C(=O)O)cc3)c2c(=O)[nH]1 [PTX, pemetrexed]",fold change,[1],0.91
same,binding to dynein associated protein (Tb09.211.4920),[2]; [13],bound specifically
same,fold change,[2],0.9
same,binding to variant surface glycoprotein 221 (VSM2.TRYBB),[3]; [13],bound specifically
same,fold change,[3],0.39
same,fold change vs vehicle control,[4]; protein TB427.07.5480 DIHYDROFOLATE REDUCTASE-T[…],1.19
same,fold changes relative to vehicle control,methylene-THF-reductase,0.47
same,fold change,"[5]; protein TB427.02.6180 IRON/ASCORBATE OXID[…] PROTEIN, vehicle control = 1",0.95
same,competition for PTR1 (Figure 6),[6]; T. brucei lysate,competed for PTR1
same,fold change vs vehicle control,[6],0.16
same,fold changes relative to vehicle control,[7],0.72
same,fold changes relative to vehicle control,[8],1.68
same,fold change,[9]; [14],1.01
same,fold change relative to vehicle control,DHFR-TS,1.08
same,fold change,PTR1,0.52
same,fold change vs vehicle control,[10],0.91
CCCCCCOc1ccc(Cc2cnc(N)nc2N)cc1 [compound 1],fold change - vehicle control,[1],0.93
same,fold change - vehicle control,[2],0.67
same,fold change - vehicle control,[3],1.43
same,fold change - vehicle control,[4]; [11],1.45
same,fold changes relative to vehicle control,"methylene-THF-reductase; captured protein MTHFR, HeLa",0.27
same,fold change,[5]; [15],0.85
same,fold change - vehicle control,[6],1
same,fold changes relative to vehicle control,"[7]; HeLa, protein MTHFD1",0.05
same,fold changes relative to vehicle control,"[8]; captured protein PCBD1, HeLa",1.01
same,fold change,[9]; [14],1.08
same,fold change,DHFR-TS,0.17
same,competition for DHFR-TS (Figure 8a),"DHFR-TS; bead mixture, L. major lysate",competed for DHFR-TS
same,fold change,PTR1; [16],1.1
same,binding to methylthioadenosine phosphorylase (LmjF.05.0830),"[10]; bead mixture, Leishmania lysates",bound
same,fold change vs vehicle control,[10],0.19
CCCCCCOc1cccc(Cc2cnc(N)nc2N)c1 [compound 2],fold change - vehicle control,[1],1.01
same,fold change - vehicle control,[2],0.91
same,fold change - vehicle control,[3],1.6
same,fold change - vehicle control,[4]; [11],1.44
same,fold changes relative to vehicle control,"methylene-THF-reductase; captured protein MTHFR, HeLa",0.58
same,fold change,[5]; [15],0.92
same,fold change - vehicle control,[6],0.92
same,fold changes relative to vehicle control,"[7]; HeLa, protein MTHFD1",0.84
same,fold changes relative to vehicle control,"[8]; captured protein PCBD1, HeLa",0.96
same,fold change,[9]; [12],1.1
same,fold change,DHFR-TS,0.99
same,fold change,PTR1; [16],1.13
same,fold change vs vehicle control,[10],0.89
Nc1nc2cccc(-c3ccccc3)c2n1Cc1ccc(Cl)c(Cl)c1 [compound 3],percentage of competition from bead binding,"[1]; multitargeted bead mixture, free ligand 100 μM, T. brucei lysate, TB427.06.4300 GAPDH",3%
same,fold change - vehicle control,[1],0.99
same,fold change - vehicle control,[2],0.96
same,fold change - vehicle control,[3],0.67
same,percentage of competition from bead binding,"[4]; multitargeted bead mixture, free ligand 100 μM, T. brucei lysate, TB427.07.5480 DHFR-TS",-11%
same,fold change - vehicle control,[4]; [11],0.98
same,fold changes relative to vehicle control,"methylene-THF-reductase; captured protein MTHFR, HeLa",1.06
same,percentage of competition from bead binding,"[5]; multitargeted bead mixture, free ligand 100 μM, T. brucei lysate, Tb427.02.6180",0%
same,fold change,"[5]; relative to vehicle control = 1, protein TB427.02.6180 IRON/ASCORBATE OXID[…] PROTEIN",0.9
same,competition for PTR1 (Figure 6),[6]; T. brucei lysate,competed for PTR1
same,percentage of competition from bead binding,"[6]; multitargeted bead mixture, free ligand 100 μM, T. brucei lysate, TB927.8.2210 PTERIDINE REDUCTASE",89%
same,fold change - vehicle control,[6],0.15
same,fold changes relative to vehicle control,"[7]; HeLa, protein MTHFD1",1.01
same,fold changes relative to vehicle control,"[8]; captured protein PCBD1, HeLa",1.29
same,percentage of competition from bead binding,"[9]; multitargeted bead mixture, free ligand 100 μM, T. brucei lysate, Tb427tmp.02.5000",-6%
same,fold change,[9]; [14],1.02
same,fold change,DHFR-TS,1.11
same,fold change,PTR1; [16],0.99
same,competition for PTR1 (Figure 8a),"PTR1; bead mixture, L. major lysate",no inhibition of PTR1
same,fold change vs vehicle control,[10],0.94
